Laboratory results as given in patent US20160262923A1, “INTRAUTERINE DELIVERY SYSTEM” (BAYER OY, priority 2013, published 2016).

Columns and labels:
[1] = system: Uterine bleeding; assay: Comparison study in monkey, IUS vehicle vs LNG vs NP, uterine bleeding; assay type: in vivo, cynomolgus macaques; conditions: for number of bleeding days: first 7 days after insertion neglected
Experimental: Animal Treatments: Adult cycling cynomolgus macaques were monitored to record regular menstrual cycles. Uterine bleeding was assessed daily by vaginal swabs (for sporadic vaginal spotting) and menstrual blood loss by vaginal tampons. After 2 menstrual cycles (˜60 days), the animals were assigned to treatment groups and laparotomized between days 6-8 (ideally day 7) of the follicular phase and an IUS was inserted by hysterotomy into the uterine lumen and sutured in place. Treatment IUS was as follows (n=5-6/group): • Group 1: Vehicle IUS • Group 2: 2 μg/day LNG • Group 3: 5 μg/day LNG • Group 4: 2 μg/day NP • Group 5: 5 μg/day NP Classification of bleeddings: Bleedings were grouped in three categories: a) positive swap or frank menses, which is the most heavy form of bleeding (BB, red colour), b) light positive swab, which is an intermediated type of bleeding (B, purple colour) and c) spot positive swab, which is a very light form of bleeding (S, orange colour). For evaluation of bleeding days, the first 7 days after insertion of the IUS were neglected, because the surgical insertion procedure already causes some bleedings in these days, which is unrelated progestin effects. FIGS. 2 and 3 and Tables 1 and 2 illustrate a comparison of 2 μg/d LNG release with 5 μg/d LNG release for 80 days with the IUS for each animal.

[2] = in vivo
[3] = system: IGFBP-1, Cyp26a1; assay: Gene expression analysis of uterine tissue after IUS (rods) in rats; assay type: in vivo; conditions: local administration by IUS (rods) in rats, identical release rates
Experimental: The left uterine horn remained untreated for internal comparison.
The uterine tissue was homogenized in 800 μl of RLT lysis buffer (Qiagen, Hilden, Germany; #79216) using a Precellys24 homogenizer (Peqlab, Erlangen, Germany; 2.8 mm ceramic beads; #91-PCS-CK28, 2×6000 rpm). 400 μl of the homogenate obtained were used for isolating total RNA, using the QlAsymphony RNA kit (Qiagen, #931636) on a QlAsymphony SP robot for automated sample preparation. Reverse transcription of from 1 μg to 4 μg of total RNA was carried out using the SuperScript III first-strand synthesis system (Invitrogen, Carlsbad, USA; #18080-051) according to the random hexamer procedure.
Gene expression analysis was carried out with from 50 ng to 200 ng of cDNA per reaction on an SDS7900HT Real.time PCR system (Applied Biosystems, Carlsbad, USA) using TaqMan probes (Applied Biosystems; IGFBP-1 Rn00565713_m1, Cyp26a1 Rn00590308_m1, PPIA Rn00690933_m1) and the Fast Blue qPCR MasterMix Plus (Eurogentec, Liege, Belgium; #RT-QP2X-03+FB). For relative quantification, cyclophilin A (PPIA) was used as an endogenous control. Relative expression levels were calculated according to the comparative delta delta CT method.

[4] = Progestational activity compared to LNG
[5] = system: uterine horn; assay: Weight gain of IUS-carrying uterine horn in ovary-resected rats; assay type: in vivo; conditions: E2 treated, IUS (rod) in right uterine horn
Experimental: The local uterine action of the a.m. progestin compared to systemic side effects (dissociation) was investigated on the basis of studies using rats (see Example 4; FIGS. 4 to 6). The uterus of ovary-resected rats responded to implantation of progestin-containing IUS (rods) with decidualization and weight gain. The local progestin effects were also determined on the basis of changes in gene expression. […] The left uterine horn remained untreated for internal comparison.

[6] = release rate 2 μg/d, total of 6 test animals
[7] = release rate 5 μg/d, total of group (LNG: 5 test animals)

Row | break-down rate [2] | Compound | number of bleeding days [1, 6] [days] | number of bleeding days [1, 7] | systemic stability / plasma clearance compared to LNG [2] | potency in inducing gene expression relative to levonorgestrel [3] | progestional activity compared to LNG [4] | bleeding reduction compared to LNG ([1]; 2 μg/d NP versus 2 μg/d LNG) | bleeding compared to vehicle IUS group ([1]; 2 μg/d release group) | bleeding compared to vehicle IUS group ([1]; 5 μg/d release group) | local efficacy by way of weight gain in the IUS-carrying uterine horn [5]
1 |  | C#C[C@]1(O)CC[C@H]2[C@@H]3CCC4=CC(=O)CC[C@@H]4[C@H]3CC[C@@]21CC [LNG, levonorgestrel, reference compound] | 24 | 4 days |  |  |  |  |  |  | 
2 | very fast break-down rate | CC[C@]12CC[C@H]3[C@@H](CCC4=CC(=O)CC[C@@H]43)[C@@H]1[C@@H]1C[C@@H]1[C@@]21CCCO1 [compound A, 18-methyl-15β,16β-methylene-19-nor-20-spirox-4-en-3-one] | 4 | No bleeding | low systemic stability/higher plasma clearance | 4- to 7 fold | higher progestional activity | higher bleeding reduction | marked reduction of bleeding | marked reduction of bleeding | dose-dependent local efficacy
3 | very fast break-down rate | CC[C@]12CCC3C4CCC(=O)C=C4C4CC4C3C1[C@@H]1C[C@@H]1[C@@]21CCCO1 (stereo partly drawn) [compound B, 18-methyl-6α,7α,15β,16β-dimethylene-19-nor-20-spirox-4-en-3-one] |  |  |  |  |  |  |  |  | dose-dependent local efficacy
